# Source: patent publication US8552161B2, “Saponin compounds, methods of preparation thereof, use thereof and pharmaceutical compositions” (Uniwersytet W Bialymstoku, priority 2009, dated 2013)
# Experiments:
# [1] = tested on: normal human fibroblasts BJ; test: Calcein AM cytotoxicity assay, normal fibroblasts BJ; assay type: cell-based; conditions: 72 h, means ± SD, three independent experiments in triplicate
# Experimental: (§1) Stock solutions (10 mmol/l) of the tested compounds were prepared by dissolving relevant quantity of the substance in DMSO. […] Calcein AM was obtained from Molecular Probes (Invitrogen Corporation, CA, USA).
# (§2) All cell lines were cultured in DMEM medium (Sigma, Mo., USA). Medium was supplemented with 10% heat-inactivated fetal bovine serum, 2 mmol/l L-glutamine and 1% penicillin-streptomycin. The cell lines were maintained under standard cell culture conditions at 37° C. and 5% CO2 in a humid environment. Cells were subcultured twice or three times a week using the standard trypsinization procedure.
# (§3) All cell lines were cultured in DMEM medium (Sigma, Mo., USA) supplemented with 10% fetal calf serum, 2 mM glutamine, 100 U/ml penicillin and 100 μg/ml streptomycin, at 37° C. in a fully humidified atmosphere containing 5% CO2. Suspensions of these lines (ca. 1.0×10^5 cells/ml) were placed in 96-well microtitre plates and after 3 h of stabilization the tested compounds were added in serially diluted concentrations. Saponins were dissolved in dimethylsulfoxide (DMSO) before addition to cultures. Control cultures were treated with DMSO alone. The final concentration of DMSO in the reaction mixtures never exceeded 0.6%. Four-fold dilutions of the intended test concentration were added at time zero in 20 μl aliquots to the microtitre plate wells. Usually, each test compound was evaluated at six 4-fold dilutions and in routine testing; the highest well concentration was 50 μM, although this varied in a few cases, depending on the test compound. After 72 h of culture, the cells were incubated with Calcein AM solution (Molecular Probes) for 1 h. The fluorescence of viable cells was quantified using a Fluoroscan Ascent instrument (Microsystems).
# [2] = tested on: caspase-3/7 in CEM cells; test: Activity of caspases-3/7 in treated CEM cells (Ac-DEVD-AMC substrate); assay type: cell-based; conditions: 24 h, 7.5 μM and 10 μM (FIG. 4)
# Experimental: The CEM cells treated with the novel compounds were harvested by centrifugations and homogenized in an extraction buffer (10 mM KCl, 5 mM HEPES, 1 mM EDTA, 1 mM EGTA, 0.2% CHAPS, inhibitors of proteases, pH 7.4) on ice for 20 min. The homogenates were clarified by centrifugation at 10,000 g for […] at 4° C., the proteins were quantified by the Bradford method and diluted to the same concentration. Lysates were then incubated for 1 h with […] Ac-DEVD-AMC as a substrate (Sigma-Aldrich) in an assay buffer (25 mM PIPES, 2 mM EGTA, 2 mM MgCl2, 5 mM DTT, pH 7.3). For negative controls, the lysates were supplemented with […] Ac-DEVD-CHO as a caspase-3/7 inhibitor (Sigma-Aldrich). The fluorescence of the product was measured using a Fluoroskan Ascent microplate reader (Labsystems) at 346/442 nm (ex/em). Here, we determined the activity of caspase-3/7 in CEM cells exposed to 3, 6 or 7 using a fluorogenic substrate Ac-DEVD-AMC and/or caspase 3/7 inhibitor […]. Cells were treated in a dose-dependent manner with compounds 3 (1; 2.5; 5 μM), 6 (0.1; 0.25; 0.5 μM) and 7 (5; 7.5; 10 μM).
# [3] = tested on: human glioblastoma cell line T98; test: Calcein AM cytotoxicity assay, T98; assay type: cell-based; conditions: 72 h, means ± SD, three independent experiments in triplicate
# Experimental: Stock solutions (10 mmol/l) of the tested compounds were prepared by dissolving relevant quantity of the substance in DMSO. Dulbecco's modified Eagle's medium (DMEM, RPMI 1640, F-12 medium), fetal bovine serum (FBS), L-glutamine, penicillin, streptomycin were purchased from Sigma (MO, USA). Calcein AM was obtained from Molecular Probes (Invitrogen Corporation, CA, USA).
# The screening cell lines (T-lymphoblastic leukaemia cell line CEM, breast carcinoma cell line MCF-7, cervical carcinoma cell line HeLa, human glioblastoma cell line T98, human malignant melanoma G-361, human osteogenic sarcoma cell line HOS, carcinomic human alveolar basal epithelial cells A549, human colon carcinoma cells HCT 116 and human fibroblasts BJ) were obtained from the American Type Culture Collection (Manassas, Va., USA). All cell lines were cultured in DMEM medium (Sigma, Mo., USA). Medium was supplemented with 10% heat-inactivated fetal bovine serum, 2 mmol/l L-glutamine and 1% penicillin-streptomycin. The cell lines were maintained under standard cell culture conditions at 37° C. and 5% CO2 in a humid environment. Cells were subcultured twice or three times a week using the standard trypsinization procedure.
# as §3, with “Cytotoxic activities of the novel compounds, obtained according to this invention, were tested in vitro against following cancer cell lines: T-lymphoblastic leukemia cell line CEM; breast carcinoma cell line MCF7, lung carcinoma cell line A549, cervical carcinoma cell line HeLa, malignant melanoma cell line G-361, osteosarcoma cell line HOS, human glioblastoma cell line T98, human colon carcinoma cells HCT 116 and normal human fibroblasts BJ. All” for “All”, “(Microsystems). The percentage of surviving cells in each well was calculated from the equation […]=(ODdrug exposed well/mean ODcontrol wells)×100%. The IC50 value, the drug concentration lethal to 50% of the tumour cells, was calculated from the obtained dose-response curves.” for “(Microsystems).”
# [4] = tested on: breast carcinoma cell line MCF7; test: Calcein AM cytotoxicity assay, MCF7; assay type: cell-based, human; conditions: Calcein AM assay, 72 h; means ± SD, three independent experiments in triplicate
# Experimental: as §1, §2, §3
compound,measurement,setting,value
"C/C=C/C(=O)OC[C@@H](C)[C@@]1(O)[C@@H](O[C@@H]2OC[C@H](O)[C@H](O[C@@H]3OC[C@@H](O)[C@H](O)[C@H]3OC(=O)c3ccc(OC)cc3)[C@H]2OC(C)=O)C[C@H]2[C@@H]3CC=C4C[C@@H](O)CC[C@]4(C)[C@H]3CC[C@@]21C [Compound 7, (20R)-21-O-[(E)-but-2-enoyl]-20-methylpregn-5-ene-3β,16β,17α,21-tetraol 16-O-{2-O-(4-methoxybenzoyl)-β-D-xylopyranosyl-(1→3)-2′-O-acetyl-α-L-arabinopyranoside}]",IC50,[1],230 ± 80 nM
same,activity of caspase-3/7 compared with the untreated control,[2],threefold increase
same,IC50,[3],940 ± 20 nM
same,IC50,[4],840 ± 510 nM
